Test: Acute toxicity in male and female Wistar rats
Conditions: in vivo; oral; male rat; observed 7 days
Description: 2-(4-Benzhydryl-1-piperazinyl)ethyl methyl 2,6-dimethyl-4-(3-nitrophenyl)-1,4-dihydropyridine-3,5-dicarboxylate dihydrochloride was suspended in a 5% solution of gum arabic and orally administered to male and female Wistar rats aged 5 weeks (body weight 105 to 139 g) in a dose of 62.5, 125, 250, 500 and 1000 mg/kg (in groups of 4 to 8) and each animal so treated was observed over a period of 7 days.

## COC(=O)C1=C(C)NC(C)=C(C(=O)OCCN2CCN(C(c3ccccc3)c3ccccc3)CC2)C1c1cccc([N+](=O)[O-])c1.Cl.Cl (stereo not shown) [2-(4-Benzhydryl-1-piperazinyl)ethyl methyl 2,6-dimethyl-4-(3-nitrophenyl)-1,4-dihydropyridine-3,5-dicarboxylate dihydrochloride]
  LD50 at 168 h: 250 to 500 mg/kg

— US4892875A, “Substituted heterocyclylalkyl esters of 1,4-dihydropyridine-3,5-dicarboxylic acids” (Takeda Chemical Industries, Ltd., priority 1982, dated 1990)
